The results in this text go back to publication PMC6600273, “Design, Synthesis and Anti-Platelet Aggregation Activity Study of Ginkgolide-1,2,3-triazole Derivatives” (Molecules, 2019).

For the assay, the system named is PAF-induced platelet aggregation. Kind of assay: In vitro antiplatelet aggregation activity assay (method of Born), PAF-induced platelet aggregation in platelet-rich plasma. To be noted: for IC50: rabbit PRP, aggregation induced by PAF (10 nM); for antiplatelet aggregation activity, inhibition ratio in primary screening (result in words): inhibition ratio at 50 nM, Figures 3 and 4. The assay is classed as cell-based, New Zealand rabbits. As for the experimental part:
The in vitro antiplatelet aggregation activity of the newly synthesized 10-substituted 1,2,3-triazole-ginkgolide derivatives was tested by the method of Born. Blood samples (2 mL) from male New Zealand rabbits (2–2.5 kg body weight) were drawn into vacutainer tubes containing 200 μL of 3.2% sodium citrate. Platelet-rich plasma (PRP) was prepared by centrifuging the blood at 250× g for 10 min at 4 °C. The PRP was diluted with platelet-poor plasma obtained by further centrifuging at 3000× g for 10 min. The remaining blood was further centrifuged at 1600× g for 5 min to obtain platelet-poor plasma (PPP) as control group. Platelet aggregation was induced by PAF (10 nM) after incubating platelets with different concentrations of samples, and the maximum rate of platelet aggregation (RPA%) within 5 min was measured with a Helena Platelet aggregometer instrument. The inhibition ratio was calculated according to the following formula:Inhibition ratio (%) = (1−(RPA% of test group) / (RPA% of control group)) × 100%
In primary screening, the activities were expressed directly as inhibition ratio at 50 nM concentration. […] The values shown in the tables were calculated by linear regression from a single experimental curve with no less than four data points, each point being the mean of the percentage inhibition at a given concentration obtained from three independent experiments.

[1] abbreviates: Oryctolagus cuniculus, Platelet.

The IC50 is the concentration that inhibits the measured activity by half. High values mean weaker potency in that assay, low ones greater potency in that assay. With `CC1C(=O)OC2C(O)C34C5CC(C(C)(C)C)C36C(OC(=O)C6OCc3cn(Cc6ccccc6)nn3)OC4(C(=O)O5)C12O` (stereo not shown) [Compound 5ff, 10-O-(1-Benzyl-1H-1,2,3-triazole) ginkgolide B], the “antiplatelet aggregation activity, inhibition ratio in primary screening (result in words)” value is “best results”. The same molecule yielded an IC50 under setting [1] of 5.31 ± 1.84 nM. Moreover, for the setting “ratio of IC50 values vs ginkgolide B”, the “fold increase in antiplatelet aggregation activity in comparison with natural ginkgolide B (1)” value was roughly 20 fold.
`Cc1ccccc1-n1cc(COC2C(=O)OC3OC45C(=O)OC6CC(C(C)(C)C)C32C64C(O)C2OC(=O)C(C)C25O)nn1` (stereo not shown) [Compound 5n, 10-O-(1-(2-Methylphenyl)-1H-1,2,3-triazole) ginkgolide B]: the “antiplatelet aggregation activity, inhibition ratio in primary screening (result in words)” value is on record as “best results”. Moreover, half-maximal inhibition under setting [1] (IC50) was put at 20.6 ± 2.84 nM.
As to `CC1C(=O)OC2C(O)C34C5CC(C(C)(C)C)C36C(OC(=O)C6OCc3cn(-c6ccccc6C#N)nn3)OC4(C(=O)O5)C12O` (stereo not shown) [Compound 5p, 10-O-(1-(2-Cyanophenyl)-1H-1,2,3-triazole) ginkgolide B], the “antiplatelet aggregation activity, inhibition ratio in primary screening (result in words)” value was “best results”. Under setting [1], this molecule yielded a half-maximal inhibitory concentration (IC50) of 10.2 ± 2.03 nM.
In turn, `C[C@@H]1C(=O)O[C@H]2C[C@@]34[C@H]5C[C@@H](C(C)(C)C)[C@]36[C@@H](OC(=O)[C@@H]6O)O[C@@]4(C(=O)O5)[C@]21O` [1′, ginkgolide A, reference compound] returned an IC50 under setting [1] of 580 ± 50.3 nM.
Consider “ginkgolide B [Compound 1, reference compound]”, for which the midpoint of inhibition, the IC50, lay at 130 ± 20 nM.
In the case of `CC1C(=O)OC2C(O)C34C5CC(C(C)(C)C)C36C(OC(=O)C6OCc3cn(-c6ccccc6)nn3)OC4(C(=O)O5)C12O` (stereo not shown) [Compound 5a, 10-O-(1-Phenyl-1H-1,2,3-triazole) ginkgolide B], the “antiplatelet aggregation activity, inhibition ratio in primary screening (result in words)” value is “best results”. Besides, the IC50 under setting [1] was determined as 7.74 ± 1.89 nM.
`Cc1cccc(-n2cc(COC3C(=O)OC4OC56C(=O)OC7CC(C(C)(C)C)C43C75C(O)C3OC(=O)C(C)C36O)nn2)c1` (stereo not shown) [Compound 5q, 10-O-(1-(3-Methylphenyl)-1H-1,2,3-triazole) ginkgolide B] gave an IC50 under setting [1] of 44.3 ± 4.42 nM.
In the case of ginkgolide C [1″, reference compound], the IC50 amounted to 7540 ± 662 nM.
